In general, IC50 refers to the concentration that inhibits the measured activity by half.

SMILES strings stand for the structures.

One test relates to PKC. Kind of test: Cell-based assay of PKC inhibition (PKC substrate phosphorylation in THP-1 cells). To be noted: human THP-1 cells, 1.5 h compound, then 20 nM PMA for 30 min; read-out: absolute IC50, PKC substrate phosphorylation. As to the method:
The purpose of this assay is to test the inhibitory effects of a test compound on PKC in a cell-based system by measuring the level of PKC substrate phosphorylation.
Staurosporin may be used as a positive control. It is prepared in DMSO to make up a […] solution and then serially diluted in plain RPMI 1640 culture medium (10 μM-0.0005 μM) to obtain a ten-point dilution curve. Test compounds are prepared in the same manner.
THP-1 cells (human macrophage cell line) are obtained from ATCC (ATCC TIB-202 lot 4028542). The cells are cultured in 96-well plates coated with poly-d-lysine (Becton Dickinson) with seeding density of 4000 cells/well in RPMI 1640 culture medium (Gibco) with 1% fetal bovine serum (Gibco). […]
After the incubation, the cells are first fixed in the Prefer fixative (ANATECH LTD) for 30 min at room temperature. […] Plates are scanned with an ACUMEN EXPLORER™ Laser-scanning fluorescence microplate cytometer (TTP LABTECH LTD), with 488 nm laser excitation to detect emission fluorescence at 655 nm-705 nm (emission of DNA bound propidium iodide) for cell counting/well, and emission of 505 nm-530 nm fluorescence of antibody binding to phosphorylated PKC substrates in cells. The main assay output is a ratio of total fluorescence of phosphorylated PKC substrates to total cell number (ratio=total intensity/total cell number). […]

The next test has as its target T1, human PKCι (Homo sapiens, UniProt P41743).
T1 sequence (P41743 1-596): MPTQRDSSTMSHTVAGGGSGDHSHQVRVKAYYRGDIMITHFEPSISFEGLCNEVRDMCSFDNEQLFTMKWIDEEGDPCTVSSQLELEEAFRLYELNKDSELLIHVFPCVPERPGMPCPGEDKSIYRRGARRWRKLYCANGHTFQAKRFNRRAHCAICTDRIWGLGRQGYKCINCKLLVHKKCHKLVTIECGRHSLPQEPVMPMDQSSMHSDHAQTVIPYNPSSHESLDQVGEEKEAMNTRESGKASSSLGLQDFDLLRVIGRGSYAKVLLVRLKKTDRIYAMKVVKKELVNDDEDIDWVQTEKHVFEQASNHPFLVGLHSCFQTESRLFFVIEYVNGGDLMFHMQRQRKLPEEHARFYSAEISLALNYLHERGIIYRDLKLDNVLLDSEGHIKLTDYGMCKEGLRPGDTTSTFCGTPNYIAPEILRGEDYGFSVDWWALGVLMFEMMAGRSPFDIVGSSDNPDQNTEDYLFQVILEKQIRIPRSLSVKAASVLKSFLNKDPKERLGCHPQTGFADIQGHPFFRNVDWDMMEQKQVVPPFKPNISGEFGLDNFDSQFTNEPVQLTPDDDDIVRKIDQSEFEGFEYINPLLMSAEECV
Kind of test: PKC isoforms based HTRF KinEASE-STK assay, PKCι. Type of test: biochemical. To be noted: 87.5 μM ATP in substrate mix, 70 min. The source says:
(§1) The purpose of this assay is to evaluate the inhibitory activity of compounds on various PKC isoforms. It has been reported that perturbations in vascular cell homeostasis caused by different PKC isoforms (PKC-α, β1/2, and PKC-δ) are linked to the development of pathologies affecting large vessel (atherosclerosis, cardiomyopathy) and small vessel (retinopathy, nephropathy, and neuropathy) complications. Geraldes, P. and King, G. L., “Activation of Protein Kinase C Isoforms and Its Impact on Diabetic Complications”, Cir.
(§2) Effects of a test compound on the kinase activity of PKCα, β2, δ, ε, ι, and ζ, are determined using a HTRF KINEASE™-STK assay kit (Cisbio) in accordance with the protocol provided by the vendor. It is a general method for measuring Serine/Threonine kinase activities using kinase substrates and a universal detection system. In the current protocol, biotinilated STK1provided in the assay kit is used as the substrate that can be phosphorylated by any PKC isoform. The HTRF KINEASE™-STK assay kit format involves the two steps (Enzymatic step and Detection step) described below. First, the kinase phosphorylates the substrate in the presence of ATP. Second, the detection reagents provided in the assay kit recognize the phosphorylated substrate.
(In TR-FRET formats the signal depends on donor and acceptor labels being close together.)

Another test concerns the target human PKCδ (Homo sapiens, UniProt Q05655). Kind of test: PKC isoforms based HTRF KinEASE-STK assay, PKCδ. Type of test: biochemical. The note with it: 62.5 μM ATP in substrate mix, 40 min.
Excerpt: as §1, §2

Another test addresses human PKCβ2 (Homo sapiens, UniProt P05771). The test can be described thus: PKC isoforms based HTRF KinEASE-STK assay, PKCβ2. To be noted: 25 μM ATP in substrate mix, 30 min. Type of test: biochemical.
Excerpt: as §1, §2

Sequence of human PKCδ (Q05655 whole entry, canonical isoform): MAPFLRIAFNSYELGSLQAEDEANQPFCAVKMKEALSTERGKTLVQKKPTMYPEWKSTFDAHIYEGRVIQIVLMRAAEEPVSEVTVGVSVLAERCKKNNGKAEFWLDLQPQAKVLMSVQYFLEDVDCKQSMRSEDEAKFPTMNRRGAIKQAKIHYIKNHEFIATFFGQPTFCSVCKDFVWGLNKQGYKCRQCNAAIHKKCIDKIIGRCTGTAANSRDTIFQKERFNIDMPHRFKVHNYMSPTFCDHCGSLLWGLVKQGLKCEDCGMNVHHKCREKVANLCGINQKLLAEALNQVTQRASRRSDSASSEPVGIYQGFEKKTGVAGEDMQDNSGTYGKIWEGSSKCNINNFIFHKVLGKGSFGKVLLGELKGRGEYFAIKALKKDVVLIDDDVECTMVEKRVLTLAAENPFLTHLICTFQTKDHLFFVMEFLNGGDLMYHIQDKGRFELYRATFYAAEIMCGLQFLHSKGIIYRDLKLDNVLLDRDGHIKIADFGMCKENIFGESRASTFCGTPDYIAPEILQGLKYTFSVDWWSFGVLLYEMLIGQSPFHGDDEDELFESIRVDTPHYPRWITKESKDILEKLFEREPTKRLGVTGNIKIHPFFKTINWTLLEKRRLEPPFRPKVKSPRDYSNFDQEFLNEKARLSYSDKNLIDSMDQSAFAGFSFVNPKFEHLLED
Sequence of human PKCβ2 (P05771 1-673 isoform P05771-2): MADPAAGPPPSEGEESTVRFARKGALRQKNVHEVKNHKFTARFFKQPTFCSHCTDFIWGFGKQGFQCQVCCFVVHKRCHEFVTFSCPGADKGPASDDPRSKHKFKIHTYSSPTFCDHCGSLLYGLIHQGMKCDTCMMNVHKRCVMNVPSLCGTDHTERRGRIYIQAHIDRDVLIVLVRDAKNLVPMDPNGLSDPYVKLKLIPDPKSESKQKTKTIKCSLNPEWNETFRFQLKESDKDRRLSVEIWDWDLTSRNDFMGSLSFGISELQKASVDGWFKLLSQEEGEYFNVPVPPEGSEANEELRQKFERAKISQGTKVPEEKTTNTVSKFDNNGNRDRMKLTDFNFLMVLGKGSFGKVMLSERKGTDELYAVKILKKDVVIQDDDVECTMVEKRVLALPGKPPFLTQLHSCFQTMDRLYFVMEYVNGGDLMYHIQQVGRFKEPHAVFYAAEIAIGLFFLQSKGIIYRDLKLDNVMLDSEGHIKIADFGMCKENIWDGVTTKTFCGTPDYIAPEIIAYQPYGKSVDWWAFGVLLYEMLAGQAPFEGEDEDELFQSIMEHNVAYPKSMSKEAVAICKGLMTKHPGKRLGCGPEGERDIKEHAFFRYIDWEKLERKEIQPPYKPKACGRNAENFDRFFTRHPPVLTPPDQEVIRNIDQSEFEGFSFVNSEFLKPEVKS

As for `C[C@@H]1CN(C(=O)c2cc(-c3c(F)cc(O)cc3F)cc3cnsc23)C[C@H](C)N1.Cl` [Example 2, 4-(7-{[(3R,5 S)-3,5-DIMETHYLPIPERAZIN-1-YL]CARBONYL}-1,2-BENZOTHIAZOL-5-YL)-3,5-DIFLUOROPHENOL HYDROCHLORIDE], the IC50 in the test on PKC was approximately 800 nM; on human PKCι, more than 20000 nM; at human PKCδ, approximately 68 nM; against human PKCβ2, approximately 51 nM.

(Values after patent US20170246166A1, “1,2-BENZOTHIAZOLE COMPOUNDS FOR THE TREATMENT OF KIDNEY DISORDERS” (priority 2014, published 2017).)
